These are literature values, as cited in US20240307316A1, “ANTIOXIDANT AND OXYGEN-RELEASING LIGNIN COMPOSITES TO ACCELERATE WOUND HEALING” (Board of Supervisors of Louisiana State University and …, priority 2023, published 2024).

Where two headings read alike, the source gives them in different places.

The test system of series [1] is 3T3 FBs.

Turning to `[Ca+2].[O-][O-]` [CaO2, Calcium peroxide], the solubility limit is 1.65 mg/mL. Further, the solubility (at 20° C.) is 1.65 mg/mL. In addition, in series [1], the concentrations exhibiting cytotoxicity result was “higher than 10 mg/mL”.

Turning to `[Mg+2].[O-][O-]` [MgO2, magnesium peroxide], the solubility (at 18° C.) is 0.86 mg/mL.
